pIC50: −log10 of the molar value.

For one assay, the target named is T1, Acyl-CoA: Cholesterol Acyltransferase (ACAT) (Rattus norvegicus, UniProt Q7TQM4).
T1 construct: Microsomes were obtained by differential centrifugation; from tissue; host or cells: liver microsomes of male Sprague Dawley rats
T1 sequence (Q7TQM4 1-524): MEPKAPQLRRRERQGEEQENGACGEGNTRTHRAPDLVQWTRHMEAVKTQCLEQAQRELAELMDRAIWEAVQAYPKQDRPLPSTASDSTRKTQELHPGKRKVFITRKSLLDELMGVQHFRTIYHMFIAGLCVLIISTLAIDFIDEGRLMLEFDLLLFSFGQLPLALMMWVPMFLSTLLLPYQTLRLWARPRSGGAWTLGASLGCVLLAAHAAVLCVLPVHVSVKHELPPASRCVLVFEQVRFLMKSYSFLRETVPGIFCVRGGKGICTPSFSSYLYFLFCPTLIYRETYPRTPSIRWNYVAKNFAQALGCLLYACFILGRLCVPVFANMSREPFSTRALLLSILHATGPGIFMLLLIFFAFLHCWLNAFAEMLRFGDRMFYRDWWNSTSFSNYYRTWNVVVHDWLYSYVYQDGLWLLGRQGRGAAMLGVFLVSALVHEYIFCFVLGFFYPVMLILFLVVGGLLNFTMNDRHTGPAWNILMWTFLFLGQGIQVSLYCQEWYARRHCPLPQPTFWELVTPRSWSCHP
Briefly: Inhibition of Acyl-CoA: Cholesterol Acyltransferase (ACAT) in hepatic microsomes (In Vitro Assay). It is filed as biochemical, rat (male Sprague Dawley). The following applies: 75 μM 14C-oleoyl-CoA, pH 7.4, 37° C., 15 min preincubation, 10 min. As for the experimental part: A. Assay of the Inhibition of Acyl-CoA: Cholesterol Acyltransferase (ACAT) in Hepatic Microsomes (In Vitro Assay)
The ability of the compounds to inhibit ACAT, the enzyme responsible for the intracellular synthesis of cholesteryl esters, was tested as follows. Male Sprague Dawley rats weighing 150-300 g, were fed rat chow ad libitum. The animals were fasted for twenty-four hours prior to being euthanized by CO2. The livers were perfused in situ with 50 ml of cold 0.25 sucrose, excised, and homogenized in three volumes of 0.1M phosphate buffer, pH 7.4, that contained 0.5 mM EDTA (ethylenediamine-tetraacetic acid), 1.0 mM glutathione, 0.25M sucrose and 20 mM leupeptin. Microsomes were obtained by differential centrifugation; the supernatant from an initial spin at 15,000× g for 15 minutes was centrifuged at 105,000× g for 1 hour to pellet the microsomes. The microsomes were suspended in 0.1M phosphate buffer, pH 7.4 with 1 mM GSH and stored at -70° C. Microsomes were used within one month of preparation.
The control assay in a final volume of 200 μl consisted of 200 μg of microsomal protein, 75 μM ^14 C-oleoyl-CoA (10,000 dpm/nmol) in 0.1M phosphate, pH 7.4, that contained 1 mM glutathione. Compounds were added in 5 μl of DMSO (dimethyl sulfoxide) and additional controls were run with DMSO only. All components, except the oleoyl-CoA, were preincubated for 15 min. at 37° C. prior to the initiation of the reaction by the addition of oleoyl-CoA. The assay was terminated after 10 min by the addition of 4 ml of chloroform:methanol (2:1, v/v). 20,000 dpm of ^3 H-cholesteryl oleate and 10 μg of unlabeled cholesteryl oleate and oleic acid were added as an internal standard and carriers, respectively. After allowing 10 min. for lipid extraction, the samples were centrifuged at 1,000× g for 10 min to separate the solvent layers. The chloroform layer containing the neutral lipids was spotted onto a Baker SI250-Pa silica gel TLC plate and the plate developed using a hexane:diethyl ether:acetic acid (170:30:1) v/v/v) mobile phase. The lipids were visualized by their interaction with iodine vapor and the cholesteryl ester spot was scraped into a scintillation vial and counted. The specific activity of ACAT in the control incubation averaged 260 pmol/min/mg microsomal protein. The data obtained are expressed as the concentration at which ACAT activity is inhibited by 50% (IC50).
By pIC50 is commonly meant −log10 of the IC50, conventionally taken in molar units. The low end stands for a large IC50, the high end for a small IC50. As to `CCCCCC1C=CC(CCCCC)C(C(=O)Nc2c(C)cccc2C)S1` (stereo not shown) [Example 67], the pIC50 is > 5.70.

As to `CCCC1C=CC(CCC)C(C(=O)Nc2c(SC)cc(C)nc2SC)S1` (stereo not shown) [Example 140], the pIC50 is > 5.70.

In the case of `CCCCCCC1=C(CCCCCC)CC(C(=O)Nc2c(C(C)C)cccc2C(C)C)SC1` (stereo not shown) [Example 1], the pIC50 was > 5.70.

Take `CCCCCC1C=CC(CCCCC)C(C(=O)Nc2c(SC)cc(C)nc2SC)S1` (stereo not shown) [Example 70, N-[2,4-bis(methylthio)-6-methylpyridin-3-yl]-3,6-dipentyl-2,3-dihydro-2H-thiopyran-2-carboxamide]: the pIC50 is > 5.70.

Consider `CC1=C(C)CC(C(=O)Nc2c(C(C)C)cccc2C(C)C)OC1` (stereo not shown) [Example 104], for which the pIC50 was 4.30 to 4.96.

As for `CCCCC1=C(CCCC)CC(C(=O)Nc2c(Cl)cccc2Cl)SC1` (stereo not shown) [Example 42], the pIC50 was > 5.70.

Regarding `CSc1cc(C)nc(SC)c1NC(=O)C1SC(CCCSC2CCCCC2)C=CC1CCCSC1CCCCC1` (stereo not shown) [Example 184], the negative-log IC50 (pIC50) was > 5.70.

Take `CCCCCCC1=C(CCCCCC)CC(C(=O)Nc2c(C)cccc2C)SC1` (stereo not shown) [Example 2]: the negative-log IC50 (pIC50) is > 5.70.

In turn, `CC1=C(C)CC(C(=O)Nc2c(C(C)C)cccc2C(C)C)SC1` (stereo not shown) [Example 53] had a negative-log IC50 (pIC50) of 5.00 to 5.52.

With `CSc1cc(C)nc(SC)c1NC(=O)C1SC(CCCCl)C=CC1CCCCl` (stereo not shown) [Example 180], the pIC50 was > 5.70.

For `CCCCCC1C=CC(CCCCC)[S+]([O-])C1C(=O)Nc1c(SC)cc(C)nc1SC` (stereo not shown) [Example 120], the pIC50 is > 5.70.

In the case of `CCCCCCSC1CC(=O)CC(C(=O)Nc2c(SC)cc(C)nc2SC)S1` (stereo not shown) [Example 402, N-[2,4-bis(methylthio)-6-methylpyridin-3-yl]-6-hexylthio-2,3,5,6-tetrahydro-4H-thiopyran-4-one-2-carboxamide], the negative-log IC50 (pIC50) was > 5.70.

Consider `CCCCC1=C(CCCC)CC(C(=O)Nc2c(C(C)C)cccc2C(C)C)SC1` (stereo not shown) [Example 40], for which the pIC50 was > 5.70.

For the compound `CCCCCC1=C(CCCCC)CC(C(=O)Nc2c(SC)cc(C)nc2SC)SC1` (stereo not shown) [Example 31], the pIC50 was > 5.70.

In the case of `CCCCCC1=C(CCCCC)CC(C(=O)Nc2ccc(SC)nc2)SC1` (stereo not shown) [Example 34], the negative logarithm of the IC50 (pIC50) was 4.30 to 4.96.

In turn, “N-[2,6-bis(1-methylethyl)phenyl]-6,7-dimethoxy-1,2,3,4-tetrahydro-2-thianaphthalene-1-carboxamide [Example 613]” showed a negative logarithm of the IC50 (pIC50) of 4.30 to 4.96.

`CCCCCC1C=CC(CCCCC)C(C(=O)Nc2c(Cl)cccc2Cl)S1` (stereo not shown) [Example 68]: the pIC50 was > 5.70.

As for `CCCCCC1=C(CCCCC)CC(C(=O)Nc2cncnc2SC)SC1` (stereo not shown) [Example 32], the pIC50 is 5.00 to 5.52.

With `CSc1cc(C)nc(SC)c1NC(=O)C1SCC=CC1OC(C)=O` (stereo not shown) [Example 168], the pIC50 is 5.00 to 5.52.

`CCCCCC1=C(CCCCC)CC(C(=O)Nc2c(Cl)cccc2Cl)SC1` (stereo not shown) [Example 29]: the pIC50 is > 5.70.

`CCCCCOc1cc2c(cc1OC)CC(CCCC)CSC2C(=O)Nc1c(SC)cc(C)nc1SC` (stereo not shown) [Example 907, N-[2,4-bis(methylthio)-6-methylpyridin-3-yl]-4-butyl-7-methoxy-8-pentoxy-1,3,4,5-tetrahydro-2-benzothiepin-1-carboxamide]: the pIC50 is > 5.70.

`CSc1cc(C)nc(SC)c1NC(=O)C1CC(C)=C(C)CO1` (stereo not shown) [Example 106, N-[2,4-bis(methylthio)-6-methyl-3-pyridyl]-2,3-dihydro-4,5-dimethyl-2H-pyran-2-carboxamide] showed a negative-log IC50 (pIC50) of 4.30 to 4.96.

Compound `CCCCO[C@H]1[C@@H](OC)O[C@H](C(=O)Nc2c(SC)cc(C)nc2SC)C(OCc2ccccc2)[C@@H]1OCCCC` (stereo in doubt) [Example 426, (2S,3R,4S,5R,6S)-N-[2,4-bis(methylthio)-6-methylpyridin-3-yl]-3-benzyloxy-4,5-dibutoxy-6-methoxy-3,4,5,6-tetrahydro-2H-pyran-2-carboxamide] gave a pIC50 of 4.30 to 4.96.

Regarding `CSc1cc(C)nc(SC)c1NC(=O)C1SC(c2ccccc2)C=CC1c1ccccc1` (stereo not shown) [Example 132], the negative logarithm of the IC50 (pIC50) is > 5.70.

For `CSc1cc(C)nc(SC)c1NC(=O)C1CC(C)=C(C)CS1` (stereo not shown) [Example 57], the negative-log IC50 (pIC50) was > 5.70.

Compound `CCCCCC1C=CC(CCCCC)C(C(=O)Nc2ccc(F)cc2F)S1` (stereo not shown) [Example 69] gave a pIC50 of 5.00 to 5.52.

As for `CCCCCC1=C(CCCCC)CC(C(=O)Nc2cccnc2SC)SC1` (stereo not shown) [Example 33], the negative-log IC50 (pIC50) was 4.30 to 4.96.

Take `CCCCCC1=C(CCCCC)CC(C(=O)Nc2c(C(C)C)cccc2C(C)C)SC1` (stereo not shown) [Example 27, N-(2,6-diisopropylphenyl)-3,6-dihydro-4,5-dipentyl-2H-thiopyran-2-carboxamide]: the negative logarithm of the IC50 (pIC50) was > 5.70.

As for `CCCCC1=C(CCCC)CC(C(=O)Nc2c(C)cccc2C)SC1` (stereo not shown) [Example 41], the pIC50 is > 5.70.

With `CCCCCC1=C(CCCCC)CC(C(=O)Nc2ccc(F)cc2F)SC1` (stereo not shown) [Example 30], the negative-log IC50 (pIC50) is 4.30 to 4.96.

As for `CCCCCC1=CC(CCCCC)C(C(=O)Nc2c(C(C)C)cccc2C(C)C)SC1` (stereo not shown) [Example 79], the pIC50 was > 5.70.

The compound `CCCCCCC1=C(CCCCCC)CC(C(=O)Nc2c(Cl)cccc2Cl)SC1` (stereo not shown) [Example 3] showed a negative-log IC50 (pIC50) of 5.00 to 5.52.

Take `CCCCCC1=C(CCCCC)CC(C(=O)Nc2c(C)nn(C)c2SC)SC1` (stereo not shown) [Example 39]: the pIC50 is > 5.70.

For the compound `CCCCCCCCC1=C(CCCCCCCC)CC(C(=O)Nc2c(SC)cc(C)nc2SC)SC1` (stereo not shown) [Example 35], the pIC50 is > 5.70.

Compound `CC(C)(C)C1C=CCC(C(=O)Nc2ccc(F)cc2F)S1` (stereo not shown) [Example 17] had a negative logarithm of the IC50 (pIC50) of 4.30 to 4.96.

On to `CCCCCC1=C(CCCCC)CC(C(=O)Nc2c(C)cccc2C)SC1` (stereo not shown) [Example 28], for which the pIC50 was > 5.70.

The subject of the next assay is ACAT. Briefly: Systemic availability of ACAT inhibitors (Ex Vivo Assay): ACAT activity in livers from orally dosed rats. The following applies: rat, oral gavage 10 mg/kg, days 1-3, livers taken 3 h after last dose; class symbols. The arrangement: species or system rat (male (CD) Sprague Dawley). As for the experimental part:
B. Assay for the Systemic Availability of ACAT Inhibitors (Ex Vivo Assay)
The inhibition of ACAT activity in livers obtained from rats orally dosed with an inhibitor was used as a determination of the compound's systemic availability. The ability of ACAT inhibitors to affect cholesterol esterification in livers obtained from dosed animals was tested as follows. This assay is also referred to herein as the Ex Vivo Assay. Male (CD) Sprague Dawley rats weighing from 190-210 g were fed purina lab chow ad libitum. Rats, three per group, were orally gavaged with 10 mg/kg of active ACAT inhibitor. The compounds were dissolved in ethanol (10% of final volume); a PEG solution (80 propylene glycol:20 polyethylene glycol 400, w:w) was added and the compound was mixed completely prior to dosing. A control group received the dosing vehicle alone. The animals were dosed once on Day 1 (am), twice on Day 2 (am and pm) and once on the morning of Day 3. Three hours after the last dose animals were euthanized using CO2. Livers were perfused with a 0.25M sucrose solution, excised, and frozen. Livers were thawed and resuspended in buffer (2 mL/g, 0.1M Phosphate, pH 7.4, 1.0 mM glutathione, 0.5 mM EDTA, 20 μM leupeptin, 60 μM benzamidine, and 0.25M sucrose). The samples were homogenized and post nuclear microsomes were obtained by centrifugation: 1.000× g for 5 min. and the resulting supernatant, 100,000× g for 1 hr. Microsomes were resuspended in phosphate buffer to approximately 25 mg/mL and frozen at -70° C. until assayed for ACAT activity.
ACAT assays contained in a final volume of 200 μl:100 ug microsomal protein, 75 μM ^14 C-oleoyl-CoA (10,000 dpm/nmol), 0.75 mg bovine serum albumin, 0.1M phosphate buffer, pH 7.4, and 1 mM glutathione. All components, except the oleoyl-CoA, were preincubated for 15 min at 37° C. prior to the initiation of the reaction by the addition of oleoyl-CoA. The assay was terminated after 10 min and ACAT activity determined as described in section A above. The average specific activity of ACAT in the vehicle control group was 661 +/- 64 pmol/min/mg (SEM). The data (% inhibition) are expressed as 100 minus the % ACAT activity in livers from dosed animals versus those from a vehicle control group.
As for `CCCCCC1C=CC(CCCCC)C(C(=O)Nc2c(SC)cc(C)nc2SC)S1` (stereo not shown) [Example 70, N-[2,4-bis(methylthio)-6-methylpyridin-3-yl]-3,6-dipentyl-2,3-dihydro-2H-thiopyran-2-carboxamide], the “Inhibition of ACAT, Ex Vivo Assay (% inhibition)” value (from here on “Inhibition … (% inhibition)”) is “++ (>50%)”.

As to `CCCCC1=C(CCCC)CC(C(=O)Nc2c(Cl)cccc2Cl)SC1` (stereo not shown) [Example 42], the “Inhibition … (% inhibition)” value is “+ (10-49%)”.

The same assay, now with this note: rat, oral gavage 10 mg/kg, days 1-3, livers taken 3 h after last dose; given as number.
Turning to `CCCC1C=CC(CCC)C(C(=O)Nc2c(SC)cc(C)nc2SC)S1` (stereo not shown) [Example 140], the “Inhibition … (% inhibition)” value is < 10%.

As to `CCCCCC1=C(CCCCC)CC(C(=O)Nc2c(SC)cc(C)nc2SC)SC1` (stereo not shown) [Example 31], the “Inhibition … (% inhibition)” value is < 10%.
